Test results from patent publication US9358227B2, “Pharmaceutical uses of 6-amino quinazoline or 3-cyano quinoline derivatives” (Jiangsu Hengrui Medicine Co., Ltd., priority 2009, dated 2016).

Tests used:
[1] = Pharmacokinetics assay in rats, intragastric; type: in vivo; conditions: both sexes, rat, plasma, po, SD rats, 25 mg/kg, read-out: Area Under Curve AUC
Protocol: The pharmacokinetic behavior of the compounds of the present invention was studied and evaluated in rats. 8 healthy adult SD rats, male and female in half, were purchased from SINO-BRITSH SIPPR/BK LAB. ANIMAL LTD., CO, License number: SCXK (Shanghai) 2003-0002 The right amount of compounds were weighted and grinded with 0.5% Sodium Carboxymethyl cellulose uniformly, suspended them with 1% tween 80 to 2.5 mg/mL of suspension before use. […] 8 Healthy adult SD rats, male and female in half, were divided into 2 groups. After an overnight fast, the rats were administered intragastrically at a dose of 25.0 mg/kg. […] The plasma samples were stored at −20° C. until analysis. The rats were fed 2 hours after administration. 50 μL of rat plasmas taken at various time points after administration were mixed with 50 μL of standard series solution to obtain plasma concentration of 50.0, 100, 200, 500, 1000, 2000, 5000 ng/mL. 150 μL, methanol was added and then the mixture was mixed for 3 minute using a vortexer and centrifuged for 10 minutes at 13,500 rpm. 10 μL of the supernatant was analyzed by LC-MS/MS. The main pharmacokinetic parameters were calculated by DAS 2.0 software.

[2] = system: xenografts of Calu-3 human lung cancer; experiment: Therapeutic effects against xenografts of Calu-3 human lung cancer in nude mice; type: in vivo, BALB/cA-nude mice
Protocol: BALB/cA-nude mice, 6 to 7 weeks old, ♀, purchased from Slaccas Experimental Animal LTD., CO.
Nude mice were hypodermic inoculated Calu-3 human lung cancer cell. After tumors grew to 150-250 mm^3, mice were randomly divided into teams (d0).
The volume of tumors and the weigh of the mice were measured and recorded for 2-3 times per week.
The calculation formula of the volume of tumor (V) is: V=½×a×b^2, a: length of tumor, b: width of tumor.

[3] = high dose (200 mg/kg), nude mice, Calu-3 xenograft

## CCOc1cc2ncc(C#N)c(Nc3ccc(OCc4ccccn4)c(Cl)c3)c2cc1NC(=O)/C=C/[C@H]1CCCN1C [Example 5, (E)-N-[4-[[3-Chloro-4-(2-pyridylmethoxy)phenyl]amino]-3-cyano-7-ethoxy-6-quinolyl]-3-[(2R)-1-methylpyrrolidin-2-yl]prop-2-enamide]
[1]
  AUC: 52800 ± 23600 ng·h/mL

## CCOc1cc2ncc(C#N)c(Nc3ccc(OCc4ccccn4)c(Cl)c3)c2cc1NC(=O)/C=C/[C@@H]1CCCN1C [Example 1, (E)-N-[4-[[3-Chloro-4-(2-pyridylmethoxy)phenyl]amino]-3-cyano-7-ethoxy-6-quinolyl]-3-[(2S)-1-methylpyrrolidin-2-yl]prop-2-enamide]
[1]
  AUC: 52600 ± 39000 ng·h/mL
[2]; [3]
  completely degraded fraction of the tumor: ⅙
  reduced fraction of the tumor volume: ⅙
[2]; nude mice xenograft
  growth of Calu-3 human lung cancer: markedly inhibited
